Values after ≈ are worked out from the molar mass of the structure shown. Active and inactive are the calls of the source. The calls are words filed in the database; no cut-off is given here.
Tests used:
[1] = Lipophilicity, logD of compound; assay type: physicochemical; conditions: octanol/water
[2] = molecular target: Voltage-gated inwardly rectifying potassium channel KCNH2 (Homo sapiens, UniProt Q12809); assay: Inhibition of human ERG
[3] = molecular target: Protein kinase C theta type (Homo sapiens, UniProt Q04759); assay: Inhibition of human recombinant full length His tagged PKC theta expressed in baculovirus using ERMRPRKRQGSVRRRV peptide as substrate incubated for 60 mins in presence of [33P] gammaATP by microbeta liquid scintillation counter
[4] = molecular target: Protein kinase C alpha type (Homo sapiens, UniProt P17252); assay: Inhibition of recombinant full length PKC alpha (unknown origin) using RRRRRKGSFKRKA peptide as substrate measured after 15 mins in presence of ATP by spectrophotometric analysis
[5] = molecular target: Protein kinase C delta type (Homo sapiens, UniProt Q05655); assay: Inhibition of recombinant full length PKC delta (unknown origin) using ERMRPRKR- QGSVRRRV peptide as substrate measured after 15 mins in presence of ATP by spectrophotometric analysis
PBMC = assay: Inhibition of IL-2 secretion from human PBMC cells stimulated with anti-CD3/CD28 measured after 24 hrs by bead-based FLISA; assay type: functional, cell-based
[6] = Stability of compound in human liver microsomes assessed as compound remaining at 30 mins; assay type: ADME, Microsome; conditions: read-out: Stability
[7] = Stability of compound in rat liver microsomes assessed as compound remaining at 30 mins; assay type: ADME, Microsome; conditions: read-out: Stability
HFL1 = assay: Cytotoxicity against human HFL1 cells assessed as growth inhibition measured after 48 hrs by 3H-thymidine incorporation assay; assay type: cell-based
[8] = Dissociation constant, pKa of compound; assay type: physicochemical
Cytochrome P450 3A4 = Cytochrome P450 3A4 (Homo sapiens, UniProt P08684); assay: Inhibition of CYP3A4 (unknown origin) at 22 uM; assay type: ADME
Cytochrome P450 2C9 = Cytochrome P450 2C9 (Homo sapiens, UniProt P11712); assay: Inhibition of CYP2C9 (unknown origin) at > 30 uM; assay type: ADME
Cytochrome P450 2D6 = Cytochrome P450 2D6 (Homo sapiens, UniProt P10635); assay: Inhibition of CYP2D6 (unknown origin) at > 30 uM; assay type: ADME
[9] = Permeability across apical to basolateral side in human Caco2 cells measured at 120 mins by LC-MS/MS analysis; assay type: ADME, cell-based; conditions: Caco-2, read-out: permeability
[10] = Clearance in iv dosed rat; assay type: ADME, organism-based; conditions: in vivo
[11] = Half-life in iv dosed rat; assay type: ADME, organism-based; conditions: in vivo
[12] = Efflux ratio of permeability in human Caco2 cells by LC-MS/MS analysis; assay type: ADME, cell-based; conditions: Caco-2
[13] = Clerance in iv dosed dog; assay type: ADME, organism-based, Canis lupus familiaris; conditions: in vivo
[14] = Half-life in iv dosed dog; assay type: ADME, organism-based, Canis lupus familiaris; conditions: in vivo
[15] = Half-life in iv dosed cynomolgus monkey; assay type: ADME, organism-based, Macaca fascicularis; conditions: in vivo
[16] = Clearance in iv dosed cynomolgus monkey; assay type: ADME, organism-based, Macaca fascicularis; conditions: in vivo
[17] = Oral bioavailability in mouse; assay type: ADME, organism-based; conditions: in vivo
[18] = Oral bioavailability in rat; assay type: ADME, organism-based; conditions: in vivo
[19] = Thermodynamic solubility of compound in sodium phosphate buffer at pH 7.4; assay type: physicochemical; conditions: read-out: Therm_solubility
[20] = Unbound drug level in brain of BALB/c mouse at 50 mg/kg, po measured after 3 hrs; assay type: ADME, organism-based; conditions: in vivo
[21] = Unbound drug level in brain of BALB/c mouse at 100 mg/kg, po measured after 3 hrs; assay type: ADME, organism-based; conditions: in vivo
[22] = molecular target: Protein kinase C beta type (Homo sapiens, UniProt P05771); assay: Inhibition of human PKC beta
Mus musculus [23] = assay: Anti-inflammatory activity in C57BL/6 mouse model of MOG (35 to 55 residues)/pertussis toxin/complete Freund's adjuvant-induced autoimmune encephalomyelitis assessed as reduction in development of clinical symptoms at 50 mg/kg, po bid starting from day 8 post immunization upto 10 days; assay type: functional, organism-based
Mus musculus [24] = assay: In vivo inhibition of Il-2 production in BALB/c mouse at 25 to 100 mg/lg, po measured after 3 hrs; assay type: functional, organism-based
[25] = Inhibition of CD3/CD28 stimulated IL-17 secretion from human Th17 cells measured after 24 hrs by ELISA

Sequence of Protein kinase C delta type (Q05655 whole entry): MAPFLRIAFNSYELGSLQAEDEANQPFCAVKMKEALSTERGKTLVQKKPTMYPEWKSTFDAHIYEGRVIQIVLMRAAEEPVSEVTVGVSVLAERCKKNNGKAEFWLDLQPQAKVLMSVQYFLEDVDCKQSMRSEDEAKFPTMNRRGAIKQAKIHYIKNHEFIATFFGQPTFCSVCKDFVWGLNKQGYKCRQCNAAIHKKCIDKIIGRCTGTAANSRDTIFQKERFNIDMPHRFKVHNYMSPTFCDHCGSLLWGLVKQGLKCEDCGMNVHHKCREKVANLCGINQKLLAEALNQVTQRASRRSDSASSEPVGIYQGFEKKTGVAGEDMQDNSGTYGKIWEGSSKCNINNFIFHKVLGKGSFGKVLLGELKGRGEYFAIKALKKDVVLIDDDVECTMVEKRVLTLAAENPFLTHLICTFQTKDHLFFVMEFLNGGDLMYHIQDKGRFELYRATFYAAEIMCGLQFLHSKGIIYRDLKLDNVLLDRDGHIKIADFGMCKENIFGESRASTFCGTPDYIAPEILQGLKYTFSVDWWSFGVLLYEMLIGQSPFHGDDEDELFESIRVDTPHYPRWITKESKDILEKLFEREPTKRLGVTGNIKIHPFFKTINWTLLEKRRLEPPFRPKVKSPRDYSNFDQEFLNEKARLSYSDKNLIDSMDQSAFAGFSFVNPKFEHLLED
Sequence of Voltage-gated inwardly rectifying potassium channel KCNH2 (Q12809 whole entry): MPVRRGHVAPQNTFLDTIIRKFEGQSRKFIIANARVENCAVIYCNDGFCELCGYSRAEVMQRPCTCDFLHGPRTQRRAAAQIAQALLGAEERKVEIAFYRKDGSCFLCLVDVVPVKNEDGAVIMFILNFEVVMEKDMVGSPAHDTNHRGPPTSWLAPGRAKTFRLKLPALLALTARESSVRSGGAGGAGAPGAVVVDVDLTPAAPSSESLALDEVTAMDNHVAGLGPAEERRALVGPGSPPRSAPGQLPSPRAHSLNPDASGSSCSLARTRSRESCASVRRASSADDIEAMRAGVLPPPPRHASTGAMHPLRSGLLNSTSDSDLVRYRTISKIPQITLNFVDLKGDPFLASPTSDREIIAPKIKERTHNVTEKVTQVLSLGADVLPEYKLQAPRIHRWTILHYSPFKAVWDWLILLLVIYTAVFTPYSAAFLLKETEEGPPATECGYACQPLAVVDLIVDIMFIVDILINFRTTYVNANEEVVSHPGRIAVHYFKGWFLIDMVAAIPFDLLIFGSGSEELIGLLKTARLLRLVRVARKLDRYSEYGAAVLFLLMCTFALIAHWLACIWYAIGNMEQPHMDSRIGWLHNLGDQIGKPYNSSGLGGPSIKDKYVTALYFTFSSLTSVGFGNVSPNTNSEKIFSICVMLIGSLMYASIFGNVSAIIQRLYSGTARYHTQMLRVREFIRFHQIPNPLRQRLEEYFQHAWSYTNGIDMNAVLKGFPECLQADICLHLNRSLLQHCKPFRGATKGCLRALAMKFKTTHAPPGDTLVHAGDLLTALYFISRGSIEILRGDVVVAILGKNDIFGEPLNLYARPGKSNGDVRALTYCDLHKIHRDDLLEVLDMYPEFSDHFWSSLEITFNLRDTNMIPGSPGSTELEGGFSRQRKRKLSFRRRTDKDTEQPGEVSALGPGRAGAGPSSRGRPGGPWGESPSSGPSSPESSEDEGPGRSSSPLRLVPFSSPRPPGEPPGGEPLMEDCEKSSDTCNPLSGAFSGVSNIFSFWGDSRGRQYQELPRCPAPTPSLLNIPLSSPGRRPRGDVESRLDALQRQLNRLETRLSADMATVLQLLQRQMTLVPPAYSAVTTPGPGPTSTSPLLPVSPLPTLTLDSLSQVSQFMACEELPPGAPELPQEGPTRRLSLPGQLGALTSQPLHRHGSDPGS
Sequence of Protein kinase C theta type (Q04759 whole entry): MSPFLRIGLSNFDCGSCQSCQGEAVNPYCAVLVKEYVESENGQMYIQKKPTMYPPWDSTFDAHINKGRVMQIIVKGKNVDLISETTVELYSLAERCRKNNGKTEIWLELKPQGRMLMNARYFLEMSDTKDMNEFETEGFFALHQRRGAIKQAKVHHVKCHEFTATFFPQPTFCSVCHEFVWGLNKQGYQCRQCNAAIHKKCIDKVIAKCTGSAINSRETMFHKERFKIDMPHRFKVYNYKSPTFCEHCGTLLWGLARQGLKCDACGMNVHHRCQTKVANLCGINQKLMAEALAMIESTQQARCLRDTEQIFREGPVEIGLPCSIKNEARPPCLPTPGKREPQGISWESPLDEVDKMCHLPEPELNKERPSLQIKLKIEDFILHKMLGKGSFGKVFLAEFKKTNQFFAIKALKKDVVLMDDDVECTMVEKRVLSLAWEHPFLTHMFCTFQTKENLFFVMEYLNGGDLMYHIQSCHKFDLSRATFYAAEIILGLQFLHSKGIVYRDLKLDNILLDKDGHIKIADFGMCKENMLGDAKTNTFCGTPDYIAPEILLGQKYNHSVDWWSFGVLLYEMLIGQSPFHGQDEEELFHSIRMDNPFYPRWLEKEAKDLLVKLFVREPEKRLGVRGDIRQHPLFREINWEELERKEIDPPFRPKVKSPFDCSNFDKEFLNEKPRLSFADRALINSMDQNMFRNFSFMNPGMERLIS
Sequence of Protein kinase C beta type (P05771 whole entry, the tested form may be a part): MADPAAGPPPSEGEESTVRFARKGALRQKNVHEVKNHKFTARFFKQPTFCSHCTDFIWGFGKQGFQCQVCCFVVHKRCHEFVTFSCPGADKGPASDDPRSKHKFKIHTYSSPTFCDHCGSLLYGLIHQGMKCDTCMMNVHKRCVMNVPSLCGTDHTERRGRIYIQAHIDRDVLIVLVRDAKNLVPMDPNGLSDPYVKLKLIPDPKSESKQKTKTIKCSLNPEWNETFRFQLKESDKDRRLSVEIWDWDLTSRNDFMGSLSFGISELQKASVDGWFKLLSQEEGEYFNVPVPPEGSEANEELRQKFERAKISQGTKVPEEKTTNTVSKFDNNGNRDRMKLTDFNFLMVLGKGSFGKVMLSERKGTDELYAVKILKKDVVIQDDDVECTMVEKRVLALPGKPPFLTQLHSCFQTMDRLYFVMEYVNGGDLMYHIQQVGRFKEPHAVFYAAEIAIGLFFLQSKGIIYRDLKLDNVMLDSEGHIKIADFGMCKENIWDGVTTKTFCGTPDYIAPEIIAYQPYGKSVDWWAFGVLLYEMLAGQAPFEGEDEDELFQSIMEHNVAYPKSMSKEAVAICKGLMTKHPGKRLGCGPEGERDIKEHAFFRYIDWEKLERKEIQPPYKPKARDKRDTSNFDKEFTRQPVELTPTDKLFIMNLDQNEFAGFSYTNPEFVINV
Sequence of Cytochrome P450 3A4 (P08684 whole entry): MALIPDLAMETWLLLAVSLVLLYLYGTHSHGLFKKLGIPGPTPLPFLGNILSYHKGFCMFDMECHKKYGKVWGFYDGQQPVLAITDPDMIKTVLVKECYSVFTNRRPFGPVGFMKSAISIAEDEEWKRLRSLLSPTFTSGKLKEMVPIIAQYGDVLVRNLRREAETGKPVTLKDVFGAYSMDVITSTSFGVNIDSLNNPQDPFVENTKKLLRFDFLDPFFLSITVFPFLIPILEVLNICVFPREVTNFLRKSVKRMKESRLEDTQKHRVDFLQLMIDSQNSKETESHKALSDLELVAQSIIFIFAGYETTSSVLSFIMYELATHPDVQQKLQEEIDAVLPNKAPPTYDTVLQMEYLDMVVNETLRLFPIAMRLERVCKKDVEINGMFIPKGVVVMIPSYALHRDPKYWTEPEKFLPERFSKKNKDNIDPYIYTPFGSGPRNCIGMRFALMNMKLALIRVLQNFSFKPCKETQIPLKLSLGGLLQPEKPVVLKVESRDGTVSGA
Sequence of Cytochrome P450 2C9 (P11712 whole entry): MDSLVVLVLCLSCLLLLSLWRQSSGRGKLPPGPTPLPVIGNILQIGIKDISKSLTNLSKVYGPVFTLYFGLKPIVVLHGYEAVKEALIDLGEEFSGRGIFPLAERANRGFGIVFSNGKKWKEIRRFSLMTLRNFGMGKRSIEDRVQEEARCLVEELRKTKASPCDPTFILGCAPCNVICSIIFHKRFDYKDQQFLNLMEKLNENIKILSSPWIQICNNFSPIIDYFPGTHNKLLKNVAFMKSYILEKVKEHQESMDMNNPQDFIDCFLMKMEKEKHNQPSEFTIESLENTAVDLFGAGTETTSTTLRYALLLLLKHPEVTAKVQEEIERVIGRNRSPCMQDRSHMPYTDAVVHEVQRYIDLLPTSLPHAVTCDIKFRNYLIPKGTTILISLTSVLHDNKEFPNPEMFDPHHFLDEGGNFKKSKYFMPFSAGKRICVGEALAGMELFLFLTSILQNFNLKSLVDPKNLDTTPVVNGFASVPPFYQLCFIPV

SMILES	logD [1]	IC50 [2]	Ki [3]	Ki [4]	Ki [5]	IC50 (PBMC)	remaining at 0.5 h [6]	remaining at 0.5 h [7]	IC50 (HFL1)	pKa [8]	also measured
Cc1cc(-c2ccnc3[nH]nc(C(F)(F)F)c23)cc(C2(CN)COC2)c1	2.2	> 10000 nM	8 nM	286 nM	542 nM	450 nM	86%	59%	2500 nM	7.9	inhibition (INH) (Cytochrome P450 3A4): Active; inhibition (INH) (Cytochrome P450 2C9): Active; inhibition (INH) (Cytochrome P450 2D6): Active
NCC1(c2cccc(-c3ccnc4[nH]nc(C(F)(F)F)c34)c2)COC1	1.7	> 10000 nM	6 nM	1020 nM	392 nM	210 nM	100%	77%	> 10000 nM	7.6	Papp A→B at 2 h [9]: 19 ×10⁻⁶ cm/s; clearance [10]: 62 mL/min/kg; half-life [11]: 1.2 h; efflux ratio [12]: 2.4; clearance [13]: 12 mL/min/kg; half-life [14]: 6.2 h; half-life [15]: 5.1 h; clearance [16]: 9 mL/min/kg; bioavailability [17]: 67%; bioavailability [18]: 46%; solubility thermodynamic [19]: 515 µM (≈ 179 µg/mL); Drug uptake(free) [20]: 0.19 µM; Drug uptake(free) [21]: 0.4 µM; Ki [22]: 1700 nM; Activity (Mus musculus [23]): Active; inhibition (Mus musculus [24]): Active; IC50 [25]: 1000 nM
